{"source": "patent US12350308B2", "about": "“Phosphorylcholine conjugates and uses thereof” (TPCERA LTD., priority 2013, dated 2025)", "format_in_all_cases": "in vivo", "key": {"male C57BL/6 mice": {"test_system": "male C57BL/6 mice", "test": "DSS induced acute colitis in mice", "details": "even after day 12", "method": "The effect of PC-tuftsin derivative (SEQ ID NO: 25) on colitis development was determined in a mouse model subjected to induction of acute colitis by dextran sulfate sodium (DSS) treatment. Specifically, induction of colitis was carried out in male C57BL/6 mice (“colitis mice”) by supplementing the drinking water (2.5% wt/v) for five days with DSS (mol. wt. 36,000-50,000).\nTwo groups of mice were fed daily via oral ingestion using a feeding-needle, with PC-tuftsin derivative at a concentration of 500 μg/0.1 ml per mouse (treatment; n=10), or PBS (control; n=10). These compounds were given during 11 days starting two days before DSS administration.\nAssessment of colitis development was performed by monitoring body weight, rectal bleeding, stool consistency, and survival every second day. Intestinal bleeding was followed by Hemoccult test and observation of bleeding signs on the anus or gross bleeding. The daily disease activity index (DAI) was calculated by grading on a scale of zero to four the following parameters: change in weight (0, <1%; 1, 1-5%; 2, 5-10%; 3, 10— 15%; and 4, >15%), intestinal bleeding (0, negative; 4, positive), and stool consistency (0, normal; 2, loose stools; 4, diarrhea). The combined scores were then divided by three to obtain the final disease activity index. Ten days following disease induction, mice were sacrificed and the large intestine was collected and evaluated for colon length and microscopic colonic damage. For microscopic scoring, the proximal, medial, and distal portions of the colon and the cecum were fixed in 10% phosphate-buffered formalin. Paraffin-embedded sections were stained with H&E. The degree of histological damage and inflammation was graded in a blinded fashion by an expert pathologist"}, "[1]": {"test_system": "splenocytes of lupus mice", "test": "Secreted cytokine protein of splenocytes of lupus mice treated with PC-tuftsin (DuoSet)", "details": "splenocytes incubated 72 hours", "method": "(§1) Mice, from age of 14 weeks, received subcutaneously PC-tuftsin at the concentration of 50 μg/0.1 ml per mouse (treatment; n=10) or PBS (control; n=10), three times a week. In the cytokines studies, the relative mRNA expression levels of pro-inflammatory cytokine IFNγ and anti-inflammatory cytokine TGFβ were analyzed by real time RT-PCR using LightCycler (Roche). Total RNA was isolated from splenocytes and was reverse-transcribed into cDNA by using Moloney Murine Leukemia Virus Reverse Transcriptase (Promega). The resulting cDNA was subjected to real-time RT-PCR in the presence of specific primers, according to the manufacturer's instructions (Table 2). The relative expression levels of IFNγ and TGFβ were normalized to β-actin levels.\nSplenocytes protein level of anti-inflammatory cytokines TGFβ, and IL-10 and pro-inflammatory cytokines IFNγ, and IL-17 were quantified by DuoSet (R&D Systems), according to the manufacturer's instructions. Briefly, spleens from mice treated with PC-tuftsin or PBS were harvested, splenocytes were isolated (5×10^6/ml) and incubated for 72 hours and thereafter assessed for contents of secreted cytokines."}, "[2]": {"test_system": "splenocytes of lupus mice", "test": "Cytokine mRNA in splenocytes of lupus mice treated with PC-tuftsin (real time RT-PCR)", "details": "normalized to β-actin; vs PBS", "method": "as §1"}, "NZBXW/F1 mice [3]": {"test_system": "NZBXW/F1 mice", "test": "Kidney morphology in lupus mice treated with PC-tuftsin (PAS, immunofluorescence)", "details": "50 μg/0.1 ml s.c. 3 times a week", "method": "The effect of PC-tuftsin on the morphology of kidneys was determined in a lupus mouse model as in Examples 2. Kidney section obtained from kidneys of mice sacrificed after treatments were paraffin embedded. PAS staining was used to detect pathology of nephritis. Immunofluorescence staining was used for detecting immune complex deposits. The latter was implemented by incubating the paraffin embedded sections with FITC-conjugated-anti-mouse-IgG. Evaluation was performed by a pathologist.\nMice, from age of 14 weeks, received subcutaneously PC-tuftsin at the concentration of 50 μg/0.1 ml per mouse (treatment; n=10) or PBS (control; n=10), three times a week."}, "Tregs CD4+CD25+FOXP3+": {"test_system": "Tregs CD4+CD25+FOXP3+", "test": "T regulatory cell profiling by FACS in splenocytes of lupus mice (PC-tuftsin study)", "details": "PBS 4±0.6 percent", "method": "as §1\nFinally, a T regulatory cell (Tregs) profiling assay was performed in isolated splenocytes incubated with the following antibodies: anti-CD4^+FITC, anti-CD25^+APC and anti-FOXP3^+PE (eBioscience) and analyzed by FACS. Forward and side scatter gates adjusted to include all cells and to exclude debris (Becton Dickinson). Cells were gated on CD4+ cells, and for intracellular staining, the cells were incubated with a fixation solution, washed and resuspended in permeabilization solution (Serotec). Isotype control was used as reference."}, "NZBXW/F1 mice [4]": {"test_system": "NZBXW/F1 mice", "test": "Proteinuria in lupus mice treated with PC-tuftsin (Multistix)", "details": "50 μg/0.1 ml s.c. 3 times a week from 14 weeks; vs PBS", "method": "The effect of PC-tuftsin (TPC) on proteinuria was determined in a mouse model for lupus, specifically, female NZBXW/F1 mice that develop lupus on a genetic background. Proteinuria levels were measured using Multistix (Bayer Diagnostics). This type of measurement is typically used in the clinic for assessing manifestation of lupus nephritis. Lupus nephritis is an inflammation of the kidney caused by systemic lupus erythematosus (SLE).\nThe mice, from age of 14 weeks, received subcutaneously PC-tuftsin at the concentration of 50 μg/0.1 ml per mouse (treatment; n=10) or PBS (control; n=10), three times a week. Proteinuria was defined as having a protein level of above 100 mg/dl in the urine."}}, "note": "Where no end group is shown, it is not given here.", "data": [{"substance": "PC-tuftsin: PC conjugated to tuftsin (threonine-lysine-proline-arginine, TKPR; SEQ ID NO: 17) using 4-aminophenylphosphorylcholine (also: phosphorylcholine conjugated via 4-aminophenylphosphorylcholine, site not given here)", "values": [{"measurement": "mice still alive", "setting": "male C57BL/6 mice", "value": 100, "unit": "%"}, {"measurement": "increase in protein level of IL-10", "setting": "[1]; vs PBS", "value": 4.8}, {"measurement": "increase in protein level of TGFβ", "setting": "[1]; vs PBS", "value": 5.1}, {"measurement": "reduction of IFNγ concentration", "setting": "[1]; vs control", "value": 5.2, "unit": "fold"}, {"measurement": "reduction of IL-17 concentration", "setting": "[1]; vs control", "value": 2.7, "unit": "fold"}, {"measurement": "relative mRNA expression of IFNγ in splenocytes", "setting": "[2]", "value": "significantly reduced"}, {"measurement": "relative mRNA expression of TGFβ in splenocytes", "setting": "[2]", "value": "significantly enhanced"}, {"measurement": "pathology of nephritis (PAS staining)", "setting": "NZBXW/F1 mice [3]", "value": "did not display any pathology of nephritis"}, {"measurement": "immune complex deposits in the glomeruli", "setting": "NZBXW/F1 mice [3]; vs PBS", "value": "very mild immune complex deposits"}, {"measurement": "enhancement in Tregs CD4+CD25+FOXP3+ expression level", "setting": "Tregs CD4+CD25+FOXP3+", "value": "18±2", "unit": "%"}, {"measurement": "proteinuria (protein level above 100 mg/dl)", "setting": "NZBXW/F1 mice [4]", "value": "significant attenuation"}]}]}
